Experimental data: patent US7993756B2, “Long-chain quaternary ammonium compounds as wood treatment agents” (Viance, LLC, priority 2005, dated 2011)

Legend:
[1] = test system: soil-bed decay of Southern Pine Mini-Stakes; experiment: Accelerated Soil-bed Decay Test of Southern Pine Mini-Stakes (AWPA Standard Test Method E14); settings: addition of 0.8% 2HT; all three retention levels; after about 10 years exposure
Text: A decay rating of 100 means no decay, and a rating of 0 indicates failure due to decay.

[2] = test system: Postia placenta; experiment: Standard soil-block decay test (AWPA Standard Test Method E-10); type: cell-based; settings: 2HT at 0.8% in the treating solution
Text: The vertical axis is percent weight loss of the wood blocks (negative numbers represent weight gain), and the horizontal axis is ACQ® wood preservative retention in the wood blocks expressed on a weight preservative/weight wood basis. […] The toxic threshold of ACQ® wood preservative against Postia placenta is estimated to be 0.7-0.8% in this test (FIG. 4).

## dimethyl di(hydrogenated tallow) ammonium compound [2HT]
[1]
  effect on performance of ACQ wood preservative in soil-bed decay test: improves the performance
[2]
  effect on toxicity of ACQ wood preservative toward Postia placenta: almost double
